Assay results taken from paper PMC5786788, “Antimicrobial Octapeptin C4 Analogues Active against Cryptococcus Species” (Antimicrobial Agents and Chemotherapy, 2018).
Like-named read-outs stand apart in the source and are kept apart here. Where a SMILES comes first, the peptide text is derived from it. Bridges are numbered along the chain shown (N, C = ends). [ ]: non-standard residue; d: D form. The star is where a group is joined. Decanoyl(3R-OH) = CCCCCCC[C@@H](O)CC(=O)*; dDab = NCC[C@@H](N)C(=O)O; Dab = NCC[C@H](N)C(=O)O

Experiments:
C. gattii MMRL 2651 = test system: C. gattii MMRL 2651
Protocol: (§1) A broth microdilution assay was initially used to characterize the antifungal activity of the cyclic lipopeptides ([39], [40]). […] common pathogenic yeasts (C. albicans, C. glabrata, C. parapsilosis, C. neoformans, and C. gattii) and one pathogenic mold (A. fumigatus) were tested to determine the MIC for each compound (Table 1) using broth microdilution. […] The only structural difference between these molecules is the presence of a phenylalanine residue at position 6 in PMB; in PME a D-leucine is present at this location (Fig. 1).
(§2) Fungal strains were stored in 15% glycerol at −80°C until use. The fungal strains used were H99 (C. neoformans type strain) ([55]), cap59Δ (an acapsular H99 mutant) ([56]), ATCC 90113 (C. neoformans), MMRL 2651 (C. gattii), ATCC 90028 (Candida albicans), ATCC 90030 (Candida glabrata), ATCC 22019 (Candida parapsilosis), and ATCC MYA 3626 (Aspergillus fumigatus). Yeasts were cultured in liquid (1% yeast extract, 2% Bacto peptone, 2% glucose) or solid (additional 2% agar) yeast extract-peptone-dextrose (YPD) media at 30°C and maintained at 4°C for no longer than 2 weeks. A. fumigatus was prepared on potato dextrose medium at 30°C and maintained at 4°C for no longer than 2 weeks.
(§3) The MICs of the yeast strains for PMB, PME, and octapeptin C4 and its derivatives were determined in accordance with CLSI M27-A2 guidelines using YNB (Becton Dickinson, USA) medium supplemented with 10 mM ammonium sulfate and 2% glucose, a final inoculum concentration of 1.5 × 10^3 to 2.0 × 10^3 cells/ml, and incubation at 35°C for 72 h ([39]). […] The MICs for PMB, PME, and octapeptin C4 for A. fumigatus were determined in accordance with the CLSI M38-A2 guidelines ([40]) using synthetic RPMI 1640 medium (with glutamine, without bicarbonate and with phenol red; Life Technologies, USA). The final inoculum concentration was 0.4 × 10^4 to 5 × 10^4 cells/ml, with incubation at 35°C for 48 h. […] All assays were completed in triplicate. Fluconazole was used as a positive control where the MIC was determined at both 50% growth (in accordance with CLSI M27-A2 guidelines) and when there was a “no visible growth” reading.

C. neoformans ATCC 90113 = conditions: for MICs against various Cryptococcus strains: ATCC 90113: ATCC 90113, 72 h
Protocol: as §1, §2, §3

C. neoformans H99 = conditions: for MICs against various Cryptococcus strains: H99: H99, 72 h; for MIC C. neoformans H99: Table 1, CLSI M27-A2, YNB medium, 35°C, no visible growth after 72 h, triplicate
Protocol: as §1, §2, §3

[1] = test system: C. neoformans H99 (cap59Δ); assay type: cell-based, Cryptococcus neoformans; conditions: triplicate; for MICs against various Cryptococcus strains: H99 (cap59Δ): Table 2, values consistent across replicates
Text: The different susceptibility of C. neoformans and C. gattii to PMB compared to other pathogenic fungi such as C. albicans and A. fumigatus has been postulated to arise from differences in cell surface composition ([38]). One key difference is the presence of a negatively charged polysaccharide capsule in Cryptococcus spp. proposed to concentrate the cationic lipopeptides at the cell surface ([38]). To examine this potential interaction for the octapeptin series, a C. neoformans cap59Δ mutant strain deficient in the secretion of negatively charged glucuronoxylomannan (an α1–3-linked mannan containing β1,2 and β1,4 xylosyl substitutions, as well as β1,2-linked glucuronyl residues) ([41], [42]), was tested against octapeptin C4 in comparison to PMB.
as §2, §3

C. albicans = experiment: Broth microdilution MIC; assay type: cell-based, Candida albicans; conditions: ATCC 90028; CLSI M27-A2, YNB medium, 35°C, no visible growth after 48 h; triplicate
Protocol: as §1, §2
(§4) […] The final inoculum concentration was 0.4 × 10^4 to 5 × 10^4 cells/ml, with incubation at 35°C for 48 h. […] All assays were completed in triplicate. […]

C. glabrata = experiment: Broth microdilution MIC; assay type: cell-based, Candida glabrata; conditions: ATCC 90030; CLSI M27-A2, YNB medium, 35°C, no visible growth after 48 h; triplicate
Protocol: as §1, §2, §4

C. parapsilosis = experiment: Broth microdilution MIC; assay type: cell-based, Candida parapsilosis; conditions: ATCC 22019; CLSI M27-A2, YNB medium, 35°C, no visible growth after 48 h; triplicate
Protocol: as §1, §2, §4

A. fumigatus = experiment: Broth microdilution MIC (CLSI M38-A2); assay type: cell-based, Aspergillus fumigatus; conditions: ATCC MYA 3626; CLSI M38-A2, RPMI 1640, 35°C, no visible growth after 48 h; triplicate
Protocol: as §1
Fungal strains were stored in 15% glycerol at −80°C until use. […]
The MICs of the yeast strains for PMB, PME, and octapeptin C4 and its derivatives were determined in accordance with CLSI M27-A2 guidelines using YNB (Becton Dickinson, USA) medium supplemented with 10 mM ammonium sulfate and 2% glucose, a final inoculum concentration of 1.5 × 10^3 to 2.0 × 10^3 cells/ml, and incubation at 35°C for 72 h ([39]). […] The MICs for PMB, PME, and octapeptin C4 for A. fumigatus were determined in accordance with the CLSI M38-A2 guidelines ([40]) using synthetic RPMI 1640 medium (with glutamine, without bicarbonate and with phenol red; Life Technologies, USA). […]

[2] = test system: capsule-induced or -suppressed C. neoformans H99 cells; experiment: In vitro time course assay of capsule influence; assay type: cell-based, Cryptococcus neoformans; conditions: PMB at 12.5 μM
Protocol: (A) C. neoformans grown on capsule inducing RPMI 1640 agar medium (without L-glutamine and sodium bicarbonate) with incubation at 37°C in 5% CO2 for 3 days. Scale bar, 20 μm. (B) C. neoformans grown on capsule-suppressing media, YPD containing 1 M NaCl at 30°C in ambient air for 3 days. […] The data represent the means of two replicates, and the error bars represent the standard errors of the mean (SEM).
Capsule induction of strain H99 was achieved as described by Zhai et al. ([37]) with growth on RPMI 1640 (without L-glutamine and sodium bicarbonate) (Sigma, Australia) agar medium and incubation at 37°C in 5% CO2 and capsule suppression by growth on YPD containing 1 M NaCl at 30°C in ambient air. After 3 days, the cells from each culture were collected, washed twice with phosphate-buffered saline (PBS), and resuspended in PBS to avoid changes in the capsule at a density of 1,500 to 2,000 cells/ml. Cell suspensions were treated with test compounds at the determined MIC value. The compounds tested were PMB sulfate, octapeptin C4, and the octapeptin C4 alanine scan derivatives P1L, P1D, P4, P3, P4L, P4D, P5, P6, P7, and P8. At 0, 1, 2, 4, 6, and 8 h after inoculation, samples from each treatment were spread onto a YPD plate, followed by incubation at 30°C for 3 days, at which time the colonies were counted. The assay was repeated in duplicate, and paired sample t tests were performed using GraphPad Prism v7.0 (GraphPad Software, USA).

[3] = test system: melanized and nonmelanized C. neoformans cells; experiment: In vitro time course assay of melanization effect; assay type: cell-based, Cryptococcus neoformans; conditions: melanin induced on L-DOPA agar vs suppressed on YPD agar; PMB at 12.5 μM, octapeptin C4 at 1.56 μM; 0-8 h; two replicates
Protocol: (A) Melanin suppressed C. neoformans. (B) Melanin induced C. neoformans. […] Samples from each flask were taken 0, 1, 2, 4, 6, and 8 h after inoculation, spread onto a YPD plate, and incubated at 30°C for 3 days, at which time the colonies were counted. The data represent the means of two replicates, and the error bars represent the SEM.
Melanization was induced by growth on L-DOPA agar medium at 30°C and suppressed by growth on YPD agar medium at 30°C. Cells were grown over 3 days and collected, washed twice in PBS, and then resuspended in PBS at a density of 1,500 to 2,000 cells/ml. Aliquots of the cells were treated with PMB sulfate, octapeptin C4, and the octapeptin C4 derivatives P1L, P1D, P4, P3, P4L, P4D, P5, P6, P7, and P8 at the determined MICs. At 0, 1, 2, 4, 6, and 8 h after inoculation, samples of the suspension were spread onto YPD agar and incubated at 30°C for 3 days, and the colonies were counted. The assay was repeated in duplicate, and paired sample t tests were performed in GraphPad Prism v7.0.

common fungal pathogens = experiment: Broth microdilution MIC, panel of fungal pathogens; assay type: cell-based; conditions: highest concentration 100 μg/ml
Protocol: as §1
The MICs of the yeast strains for PMB, PME, and octapeptin C4 and its derivatives were determined in accordance with CLSI M27-A2 guidelines using YNB (Becton Dickinson, USA) medium supplemented with 10 mM ammonium sulfate and 2% glucose, a final inoculum concentration of 1.5 × 10^3 to 2.0 × 10^3 cells/ml, and incubation at 35°C for 72 h ([39]). […] The MICs for PMB, PME, and octapeptin C4 for A. fumigatus were determined in accordance with the CLSI M38-A2 guidelines ([40]) using synthetic RPMI 1640 medium (with glutamine, without bicarbonate and with phenol red; Life Technologies, USA). The final inoculum concentration was 0.4 × 10^4 to 5 × 10^4 cells/ml, with incubation at 35°C for 48 h. […] All assays were completed in triplicate. […]

| Molecule | MICs against various Cryptococcus strains: MMRL 2651 (C. gattii MMRL 2651; 72 h) | MICs against various Cryptococcus strains: ATCC 90113 (C. neoformans ATCC 90113) | MICs against various Cryptococcus strains: H99 (C. neoformans H99) | MICs against various Cryptococcus strains: H99 (cap59Δ) [1] | MIC C. albicans (C. albicans) | MIC C. glabrata (C. glabrata) | MIC C. parapsilosis (C. parapsilosis) | MIC A. fumigatus (A. fumigatus) | MIC C. neoformans H99 (C. neoformans H99) | also measured |
| --- | --- | --- | --- | --- | --- | --- | --- | --- | --- | --- |
| CCCCCCC[C@@H](O)CC(=O)N[C@H](CCN)C(=O)N[C@H]1CCNC(=O)[C@H](CC(C)C)NC(=O)[C@H](CCN)NC(=O)[C@H](C)NC(=O)[C@H](CC(C)C)NC(=O)[C@@H](Cc2ccccc2)NC(=O)[C@H](CCN)NC1=O [Compound P6] ({Decanoyl(3R-OH)}-[dDab][Dab][Dab][dF]LA[Dab]L; lactam 2-C) | 6.25 µg/mL | 6.25 µg/mL | 6.25 µg/mL | 12.5 µg/mL | – | – | – | – | – | – |
| CCCCCCC[C@@H](O)CC(=O)N[C@H](CCN)C(=O)N[C@H]1CCNC(=O)[C@H](CC(C)C)NC(=O)[C@H](C)NC(=O)[C@H](CCN)NC(=O)[C@H](CC(C)C)NC(=O)[C@@H](Cc2ccccc2)NC(=O)[C@H](CCN)NC1=O [Compound P7] ({Decanoyl(3R-OH)}-[dDab][Dab][Dab][dF]L[Dab]AL; lactam 2-C) | – | 6.25 µg/mL | 6.25 µg/mL | 12.5 µg/mL | – | – | – | – | – | MICs against various Cryptococcus strains: MMRL 2651 (C. gattii MMRL 2651; Table 2, C. gattii, triplicate, values consistent across replicates): 12.5 µg/mL |
| CCCCCCC[C@@H](O)CC(=O)N[C@H](CCN)C(=O)N[C@H]1CCNC(=O)[C@H](C)NC(=O)[C@H](CCN)NC(=O)[C@H](CCN)NC(=O)[C@H](CC(C)C)NC(=O)[C@@H](Cc2ccccc2)NC(=O)[C@H](CCN)NC1=O [Compound P8] ({Decanoyl(3R-OH)}-[dDab][Dab][Dab][dF]L[Dab][Dab]A; lactam 2-C) | 50.0 µg/mL | 6.25 µg/mL | 50.0 µg/mL | 100 µg/mL | – | – | – | – | – | – |
| polymyxin B [PMB] | – | – | – | – | >100 µg/mL | >100 µg/mL | >100 µg/mL | >100 µg/mL | 12.5 µg/mL | MIC C. gattii (C. gattii MMRL 2651; Table 1, MMRL 2651, CLSI M27-A2, YNB medium, 35°C, 72 h, triplicate): 25.0 µg/mL; MIC C. neoformans ATCC 90113 (C. neoformans ATCC 90113; Table 1, CLSI M27-A2, YNB medium, 35°C, no visible growth after 72 h, triplicate): 12.5 µg/mL; MIC C. neoformans H99 (cap59Δ) ([1]; Table 1, CLSI M27-A2, YNB medium, 35°C, no visible growth after 72 h): 50 µg/mL; time to 50% reduction in viability, fungal cells with large capsule ([2]; H99, capsule induced on RPMI 1640 agar 37°C 5% CO2, cells in PBS, colony counts, two replicates): around 1 h; time to 50% reduction in viability, capsule suppressed fungal cells ([2]; H99, capsule suppressed on YPD with 1 M NaCl 30°C, relative to large capsule cells): five times longer; effect of capsule formation on fungicidal activity ([2]; H99, octapeptin C4 at 1.56 μM, 0-8 h, two replicates): enhanced the fungicidal effect; effect of melanization on fungicidal activity [3]: no difference in activity |
| polymyxin E [PME] | – | – | – | – | >100 µg/mL | >100 µg/mL | >100 µg/mL | >100 µg/mL | 100 µg/mL | antifungal activity against any of the species analyzed (common fungal pathogens): did not show significant antifungal activity |
